Assays:
GCN2 kinase = GCN2 kinase (Homo sapiens (Human), UniProt Q9P2K8); experiment: GCN2 Enzyme Inhibition Assay (Transcreener ADP2 fluorescence polarization); type: biochemical; conditions: 280 μM ATP, 200 μM (RS)7 peptide, 4 nM GCN2, 25° C.
In short: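 Transcreener ADP2 fluorescence polarization detection of ADP from 4 nM GCN2 with (RS)7 substrate in 25 mM Tris-HCl pH 7.5, 50 mM NaCl, 10 mM MgCl2, 1 mM DTT. Compound pre-incubated with enzyme 10 min at 25 °C; reaction started by ATP, run 1 h at 25 °C. IC50 and Ki(app) by tight-binding fit.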

[1] = target: intracellular GCN2 (phosphorylation of the GCN2 substrate eIF2α) (Homo sapiens (Human), UniProt Q9P2K8); experiment: GCN2 Cellular Inhibition Assay (AlphaScreen SureFire P-eIF2α Ser51, borrelidin-treated U2OS cells); type: cell-based; conditions: 10 μM borrelidin, 1 h, phosphorylated eIF2α Ser51, read-out: GCN2 Biomarker (IC50)
In short: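 U2OS cells adhered overnight, then given compound (top 40 μM, 4-fold serial dilutions) plus 10 μM borrelidin for 1 h at 37 °C. Lysates assayed for eIF2α phospho-Ser51 by AlphaScreen SureFire; % inhibition versus borrelidin-only wells.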

Sequence of GCN2 kinase (Q9P2K8 whole entry): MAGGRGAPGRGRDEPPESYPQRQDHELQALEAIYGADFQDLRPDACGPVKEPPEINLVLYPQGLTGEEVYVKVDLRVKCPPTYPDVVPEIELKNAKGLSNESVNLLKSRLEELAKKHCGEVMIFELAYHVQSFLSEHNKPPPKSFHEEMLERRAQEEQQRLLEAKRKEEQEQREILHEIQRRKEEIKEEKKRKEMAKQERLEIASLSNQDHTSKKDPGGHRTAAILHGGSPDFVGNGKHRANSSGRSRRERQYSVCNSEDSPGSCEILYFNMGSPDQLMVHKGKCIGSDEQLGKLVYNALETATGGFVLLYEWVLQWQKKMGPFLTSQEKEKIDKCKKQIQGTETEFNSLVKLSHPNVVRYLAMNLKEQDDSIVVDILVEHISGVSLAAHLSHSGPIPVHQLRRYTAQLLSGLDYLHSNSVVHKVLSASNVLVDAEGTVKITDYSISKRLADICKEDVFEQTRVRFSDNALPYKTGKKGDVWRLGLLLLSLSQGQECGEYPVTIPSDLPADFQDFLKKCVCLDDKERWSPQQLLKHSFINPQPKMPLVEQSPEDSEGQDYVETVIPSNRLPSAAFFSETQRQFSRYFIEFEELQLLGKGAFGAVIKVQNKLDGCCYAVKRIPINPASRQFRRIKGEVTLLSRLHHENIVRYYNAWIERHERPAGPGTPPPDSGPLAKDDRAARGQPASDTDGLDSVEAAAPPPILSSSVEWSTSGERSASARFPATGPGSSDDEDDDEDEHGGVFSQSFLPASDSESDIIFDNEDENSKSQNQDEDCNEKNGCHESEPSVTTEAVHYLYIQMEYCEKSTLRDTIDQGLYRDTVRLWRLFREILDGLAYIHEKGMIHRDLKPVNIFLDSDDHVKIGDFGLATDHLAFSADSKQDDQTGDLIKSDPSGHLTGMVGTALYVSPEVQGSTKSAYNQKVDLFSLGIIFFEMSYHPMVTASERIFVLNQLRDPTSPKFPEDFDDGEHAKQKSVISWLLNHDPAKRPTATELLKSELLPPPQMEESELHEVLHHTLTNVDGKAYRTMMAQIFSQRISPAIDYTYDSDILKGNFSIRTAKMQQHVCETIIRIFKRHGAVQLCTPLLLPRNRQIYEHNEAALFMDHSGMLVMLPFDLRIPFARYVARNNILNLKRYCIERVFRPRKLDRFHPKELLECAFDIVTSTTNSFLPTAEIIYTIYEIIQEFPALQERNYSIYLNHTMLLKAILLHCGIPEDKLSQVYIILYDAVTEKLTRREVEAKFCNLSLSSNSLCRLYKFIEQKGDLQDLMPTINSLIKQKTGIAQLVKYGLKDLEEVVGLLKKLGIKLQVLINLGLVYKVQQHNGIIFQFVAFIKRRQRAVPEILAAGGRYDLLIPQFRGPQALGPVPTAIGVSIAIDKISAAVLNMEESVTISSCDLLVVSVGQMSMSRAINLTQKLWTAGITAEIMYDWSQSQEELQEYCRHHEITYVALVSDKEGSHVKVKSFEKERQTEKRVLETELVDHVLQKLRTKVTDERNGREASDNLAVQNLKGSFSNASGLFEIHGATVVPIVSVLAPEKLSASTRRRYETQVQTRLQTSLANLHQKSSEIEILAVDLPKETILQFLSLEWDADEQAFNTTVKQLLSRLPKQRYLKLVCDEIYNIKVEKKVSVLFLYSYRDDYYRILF
Sequence of intracellular GCN2 (phosphorylation of the GCN2 substrate eIF2α) (Q9P2K8 whole entry): as above

SMILES | IC50 (GCN2 kinase) [nM] | IC50 [1] [nM]
FC(F)(F)c1ccc2ncc(-c3nccc(N4CCN(Cc5cnon5)C(c5cn[nH]c5)C4)n3)n2c1 (centres unmarked) [I-461, 4-{4-[(1,2,5-oxadiazol-3-yl)methyl]-3-(1H-pyrazol-4-yl)piperazin-1-yl}-2-[6-(trifluoromethyl)imidazo[1,2-a]pyridin-3-yl]pyrimidine] | < 10 | < 500
C[C@@H]1CN(c2ccnc(-c3cnc4ccc(C(F)(F)F)cn34)n2)C[C@H](C)N1C(=O)CC1CCOCC1 [I-464, 1-(cis-2,6-dimethyl-4-(2-(6-(trifluoromethyl)imidazo[1,2-a]pyridin-3-yl)pyrimidin-4-yl)piperazin-1-yl)-2-(tetrahydro-2H-pyran-4-yl)ethan-1-one] | 100 to 1000 | 500 to 5000
FC(F)(F)c1ccc2ncc(-c3nccc(N4CCN(CC5CC5(F)F)C(c5cn[nH]c5)C4)n3)n2c1 (centres unmarked) [I-470, 3-(4-(4-((2,2-difluorocyclopropyl)methyl)-3-(1H-pyrazol-4-yl)piperazin-1-yl)pyrimidin-2-yl)-6-(trifluoromethyl)imidazo[1,2-a]pyridine] | < 10 | < 500
FC(F)(F)c1ccc2ncc(-c3nccc(N4CCN(CC5CC56CCOCC6)C(c5cn[nH]c5)C4)n3)n2c1 (centres unmarked) [I-476, 4-[4-({6-oxaspiro[2.5]octan-1-yl}methyl)-3-(1H-pyrazol-4-yl)piperazin-1-yl]-2-[6-(trifluoromethyl)imidazo[1,2-a]pyridin-3-yl]pyrimidine] | < 10 | < 500
CC1(C)CC1CN1CCN(c2ccnc(-c3cnc4ccc(C(F)(F)F)cn34)n2)CC1c1cn[nH]c1 (centres unmarked) [I-477, 3-(4-(4-((2,2-dimethylcyclopropyl)methyl)-3-(1H-pyrazol-4-yl)piperazin-1-yl)pyrimidin-2-yl)-6-(trifluoromethyl)imidazo[1,2-a]pyridine] | 10 to 100 | < 500
CS(=O)(=O)NC1CC(C(F)(F)F)CN(c2ccnc(-c3cnc4ccc(C(F)(F)F)cn34)n2)C1 (centres unmarked) [I-478, N-(5-(trifluoromethyl)-1-(2-(6-(trifluoromethyl)imidazo[1,2-a]pyridin-3-yl)pyrimidin-4-yl)piperidin-3-yl)methanesulfonamide] | 10 to 100 | < 500
CS(=O)(=O)C1CC(N2CCN(c3ccnc(-c4cnc5ccc(C(F)(F)F)cn45)n3)C[C@H]2c2cn[nH]c2)C1 (stereo partly drawn) [I-490, 3-{4-[(R)-4-(3-Methanesulfonyl-cyclobutyl)-3-(1H-pyrazol-4-yl)-piperazin-1-yl]-pyrimidin-2-yl}-6-trifluoromethyl-imidazo[1,2-a]pyridine] | < 10 | < 500
CC1(C)CN(c2ccnc(-c3cnc4ccc(C(F)(F)F)cn34)n2)CCN1C(=O)C1CCC(=O)CC1 [I-492, 4-(2,2-dimethyl-4-(2-(6-(trifluoromethyl)imidazo[1,2-a]pyridin-3-yl)pyrimidin-4-yl)piperazine-1-carbonyl)cyclohexan-1-one] | 10 to 100 | 500 to 5000
C[C@H](NS(C)(=O)=O)[C@@H]1[C@H](C)N(c2ccnc(-c3cnc4ccc(C(F)(F)F)cn34)n2)CCN1C1CC1 [I-500, N—((S)-1-((2S,3 S)-1-cyclopropyl-3-methyl-4-(2-(6-(trifluoromethyl)imidazo[1,2-a]pyridin-3-yl)pyrimidin-4-yl)piperazin-2-yl)ethyl)methanesulfonamide] | 100 to 1000 | 500 to 5000
C[C@@H]1CN(c2ccnc(-c3cnc4ccc(C(F)(F)F)cn34)n2)C[C@H](C)N1C(=O)CC1COC1 [I-501, 1-(cis-2,6-dimethyl-4-(2-(6-(trifluoromethyl)imidazo[1,2-a]pyridin-3-yl)pyrimidin-4-yl)piperazin-1-yl)-2-(oxetan-3-yl)ethan-1-one] | 100 to 1000 | 500 to 5000
FC(F)(F)c1ccc2ncc(-c3nccc(N4CCN(C5CC6(COC6)C5)[C@@H](c5cn[nH]c5)C4)n3)n2c1 [I-502, (S)-3-(4-(3-(1H-pyrazol-4-yl)-4-(2-oxaspiro[3.3]heptan-6-yl)piperazin-1-yl)pyrimidin-2-yl)-6-(trifluoromethyl)imidazo[1,2-a]pyridine] | 10 to 100 | < 500
C[C@@H]1[C@H]([C@@H](C)NS(C)(=O)=O)N(C2CC2)CCN1c1ccnc(-c2cnc3ccc(C(F)(F)F)cn23)n1 [I-505, N—((R)-1-((2R,3R)-1-cyclopropyl-3-methyl-4-(2-(6-(trifluoromethyl)imidazo[1,2-a]pyridin-3-yl)pyrimidin-4-yl)piperazin-2-yl)ethyl)methanesulfonamide] | 100 to 1000 | > 5000

Other lines, results leading:

IC50 (GCN2 kinase) [nM] | IC50 [1] [nM] | SMILES
10 to 100 | 500 to 5000 | C[C@@H](NS(C)(=O)=O)[C@@H]1[C@H](C)N(c2ccnc(-c3cnc4ccc(C(F)(F)F)cn34)n2)CCN1C1CC1 [I-506, N—((R)-1-((2 S,3 S)-1-cyclopropyl-3-methyl-4-(2-(6-(trifluoromethyl)imidazo[1,2-a]pyridin-3-yl)pyrimidin-4-yl)piperazin-2-yl)ethyl)methanesulfonamide]
100 to 1000 | 500 to 5000 | C[C@H](NS(C)(=O)=O)[C@H]1[C@@H](C)N(c2ccnc(-c3cnc4ccc(C(F)(F)F)cn34)n2)CCN1C1CC1 [I-507, N—((S)-1-((2R,3R)-1-cyclopropyl-3-methyl-4-(2-(6-(trifluoromethyl)imidazo[1,2-a]pyridin-3-yl)pyrimidin-4-yl)piperazin-2-yl)ethyl)methanesulfonamide]
< 10 | < 500 | FC(F)(F)c1ccc2ncc(-c3ccnc(N4CCN(C5CC5)[C@H](c5cn[nH]c5)C4)n3)n2c1 [I-508, 3-{2-[(R)-4-Cyclopropyl-3-(1H-pyrazol-4-yl)-piperazin-1-yl]-pyrimidin-4-yl}-6-trifluoromethyl-imidazo[1,2-a]pyridine]
< 10 | < 500 | CC1(CN2CCN(c3ccnc(-c4cnc5ccc(C(F)(F)F)cn45)n3)CC2c2cn[nH]c2)CC1 (centres unmarked) [I-510, 3-(4-(4-((1-methylcyclopropyl)methyl)-3-(1H-pyrazol-4-yl)piperazin-1-yl)pyrimidin-2-yl)-6-(trifluoromethyl)imidazo[1,2-a]pyridine]
100 to 1000 | 500 to 5000 | COCC1(CN2CCN(c3ccnc(-c4cnc5ccc(C(F)(F)F)cn45)n3)[C@@H](C)[C@@H]2c2cn[nH]c2)CCC1 [I-512, 4-[(2S,3 S)-4-{[1-(methoxymethyl)cyclobutyl]methyl}-2-methyl-3-(1H-pyrazol-4-yl)piperazin-1-yl]-2-[6-(trifluoromethyl)imidazo[1,2-a]pyridin-3-yl]pyrimidine]
10 to 100 | < 500 | FC(F)(F)c1ccc2ncc(-c3nccc(N4CCN(C[C@@H]5CC56CCOCC6)[C@H](c5cn[nH]c5)C4)n3)n2c1 [I-520, 3-(4-((R)-4-(((R)-6-oxaspiro[2.5]octan-1-yl)methyl)-3-(1H-pyrazol-4-yl)piperazin-1-yl)pyrimidin-2-yl)-6-(trifluoromethyl)imidazo[1,2-a]pyridine]
< 10 | < 500 | FC(F)(F)c1ccc2ncc(-c3nccc(N4CCN(C[C@H]5CC56CCOCC6)[C@@H](c5cn[nH]c5)C4)n3)n2c1 [I-521, 3-(4-((S)-4-(((S)-6-oxaspiro[2.5]octan-1-yl)methyl)-3-(1H-pyrazol-4-yl)piperazin-1-yl)pyrimidin-2-yl)-6-(trifluoromethyl)imidazo[1,2-a]pyridine]
< 10 | < 500 | FC(F)(F)c1ccc2ncc(-c3nccc(N4CCN(C[C@@H]5CC56CCOCC6)[C@@H](c5cn[nH]c5)C4)n3)n2c1 [I-522, 3-(4-((S)-4-(((R)-6-oxaspiro[2.5]octan-1-yl)methyl)-3-(1H-pyrazol-4-yl)piperazin-1-yl)pyrimidin-2-yl)-6-(trifluoromethyl)imidazo[1,2-a]pyridine]
10 to 100 | < 500 | FC(F)(F)c1ccc2ncc(-c3nccc(N4CCN(C[C@H]5CC56CCOCC6)[C@H](c5cn[nH]c5)C4)n3)n2c1 [I-523, 3-(4-((R)-4-(((S)-6-oxaspiro[2.5]octan-1-yl)methyl)-3-(1H-pyrazol-4-yl)piperazin-1-yl)pyrimidin-2-yl)-6-(trifluoromethyl)imidazo[1,2-a]pyridine]
10 to 100 | 500 to 5000 | C[C@H]1CN(c2ccnc(-c3cnc4ccc(C(F)F)cn34)n2)C[C@@H](CO)O1 [I-524, ((2S,6S)-4-(2-(6-(difluoromethyl)imidazo[1,2-a]pyridin-3-yl)pyrimidin-4-yl)-6-methylmorpholin-2-yl)methanol]
10 to 100 | 500 to 5000 | CS(=O)(=O)NC1CC(C(F)(F)F)CN(c2nccc(-c3cnc4ccc(C(F)F)cn34)n2)C1 (centres unmarked) [I-525, N-(1-(4-(6-(difluoromethyl)imidazo[1,2-a]pyridin-3-yl)pyrimidin-2-yl)-5-(trifluoromethyl)piperidin-3-yl)methanesulfonamide]
10 to 100 | < 500 | CC1(C)C[C@H]1CN1CCN(c2ccnc(-c3cnc4ccc(C(F)(F)F)cn34)n2)C[C@H]1c1cn[nH]c1 [I-526, 3-(4-((R)-4-(((R)-2,2-dimethylcyclopropyl)methyl)-3-(1H-pyrazol-4-yl)piperazin-1-yl)pyrimidin-2-yl)-6-(trifluoromethyl)imidazo[1,2-a]pyridine]
10 to 100 | 500 to 5000 | CC1(C)C[C@@H]1CN1CCN(c2ccnc(-c3cnc4ccc(C(F)(F)F)cn34)n2)C[C@@H]1c1cn[nH]c1 [I-527, 3-(4-((S)-4-(((S)-2,2-dimethylcyclopropyl)methyl)-3-(1H-pyrazol-4-yl)piperazin-1-yl)pyrimidin-2-yl)-6-(trifluoromethyl)imidazo[1,2-a]pyridine]

From patent US10793563B2, “GCN2 inhibitors and uses thereof” (Merck Patent GmbH, priority 2018, dated 2020)
